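96-well plates; 48 h exposure; 5 concentrations. Endpoints by linear interpolation between flanking doses. Not reached: highest tested concentration assigned. GI50 = concentration required for 50% inhibition of growth.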 Activity calls are given as the source filed them. Rule as the data show it: active = GI50 up to about 1.1 µM and inactive = higher.
Experiments:
Assay in all cases: growth of human tumour cells (NCI), 48 h
786-0 = tested on: 786-0
OVCAR-3 = tested on: OVCAR-3
SNB-75 = tested on: SNB-75
NCI/ADR-RES = tested on: NCI/ADR-RES
HL-60 = tested on: HL-60
HCT-116 = tested on: HCT-116
EKVX = tested on: EKVX
RPMI-8226 = tested on: RPMI-8226
SNB-19 = tested on: SNB-19
A498 = tested on: A498
NCI-H522 = tested on: NCI-H522
NCI-H226 = tested on: NCI-H226
CCRF-CEM = tested on: CCRF-CEM
BT-549 = tested on: BT-549
NCI-H460 = tested on: NCI-H460
OVCAR-4 = tested on: OVCAR-4
OVCAR-5 = tested on: OVCAR-5
SF-268 = tested on: SF-268
K562 = tested on: K562
MOLT-4 = tested on: MOLT-4
SN12C = tested on: SN12C
MDA-MB-231 = tested on: MDA-MB-231
Malme-3M = tested on: Malme-3M
KM12 = tested on: KM12
HT-29 = tested on: HT-29
HOP-62 = tested on: HOP-62
TK-10 = tested on: TK-10
Hs-578T = tested on: Hs-578T
MCF7 = tested on: MCF7
M14 = tested on: M14
A549 = tested on: A549
RXF 393 = tested on: RXF 393
IGROV-1 = tested on: IGROV-1
U-251 = tested on: U-251
T47D = tested on: T47D
SK-OV-3 = tested on: SK-OV-3
SK-MEL-2 = tested on: SK-MEL-2
HCC 2998 = tested on: HCC 2998
UACC-257 = tested on: UACC-257
ACHN = tested on: ACHN
MDA-MB-435 = tested on: MDA-MB-435
SK-MEL-5 = tested on: SK-MEL-5
HCT-15 = tested on: HCT-15
LOX IMVI = tested on: LOX IMVI
SK-MEL-28 = tested on: SK-MEL-28
DU-145 = tested on: DU-145
OVCAR-8 = tested on: OVCAR-8
SR = tested on: SR
SW-620 = tested on: SW-620
MDA-N = tested on: MDA-N
PC-3 = tested on: PC-3
SF-295 = tested on: SF-295
NCI-H23 = tested on: NCI-H23
UO-31 = tested on: UO-31
UACC-62 = tested on: UACC-62
COLO 205 = tested on: COLO 205
CAKI-1 = tested on: CAKI-1
SF-539 = tested on: SF-539
HOP-92 = tested on: HOP-92

## COc1ccc2[nH]cc(CN3CCC(CO)(c4ccccc4)CC3)c2c1
786-0
  GI50: 15.3 µM (inactive)
OVCAR-3
  GI50: 48.2 µM (inactive)
SNB-75
  GI50: 27 µM (inactive)
NCI/ADR-RES
  GI50: > 100 µM (inactive)
HL-60
  GI50: 18.7 µM (inactive)
HCT-116
  GI50: 15 µM (inactive)
EKVX
  GI50: 8.28 µM (inactive)
RPMI-8226
  GI50: 22.6 µM (inactive)
SNB-19
  GI50: > 100 µM (inactive)
A498
  GI50: 45.8 µM (inactive)
NCI-H522
  GI50: 18.9 µM (inactive)
NCI-H226
  GI50: 43.5 µM (inactive)
CCRF-CEM
  GI50: 21.6 µM (inactive)
BT-549
  GI50: 78.9 µM (inactive)
NCI-H460
  GI50: 30 µM (inactive)
OVCAR-4
  GI50: 42.2 µM (inactive)
OVCAR-5
  GI50: 68.5 µM (inactive)
SF-268
  GI50: 11.9 µM (inactive)
K562
  GI50: 17.6 µM (inactive)
MOLT-4
  GI50: 21 µM (inactive)
SN12C
  GI50: 72.8 µM (inactive)
MDA-MB-231
  GI50: 26.7 µM (inactive)
Malme-3M
  GI50: 25.8 µM (inactive)
KM12
  GI50: 17.9 µM (inactive)
HT-29
  GI50: 23.1 µM (inactive)
HOP-62
  GI50: 19.7 µM (inactive)
TK-10
  GI50: 95.9 µM (inactive)
Hs-578T
  GI50: 25.7 µM (inactive)
MCF7
  GI50: 20.8 µM (inactive)
M14
  GI50: 17.3 µM (inactive)
A549
  GI50: 22.5 µM (inactive)
RXF 393
  GI50: 71.4 µM (inactive)
IGROV-1
  GI50: 38.5 µM (inactive)
U-251
  GI50: 30.3 µM (inactive)
T47D
  GI50: 20.9 µM (inactive)
SK-OV-3
  GI50: 0.53 µM (active)
SK-MEL-2
  GI50: 23.2 µM (inactive)
HCC 2998
  GI50: 21 µM (inactive)
UACC-257
  GI50: 17.5 µM (inactive)
ACHN
  GI50: 20.2 µM (inactive)
MDA-MB-435
  GI50: 20.6 µM (inactive)
SK-MEL-5
  GI50: 14.1 µM (inactive)
HCT-15
  GI50: 35.1 µM
LOX IMVI
  GI50: 16.8 µM (inactive)
SK-MEL-28
  GI50: 17.9 µM (inactive)
DU-145
  GI50: 45.2 µM (inactive)
OVCAR-8
  GI50: 52.7 µM (inactive)
SR
  GI50: 22.1 µM (inactive)
SW-620
  GI50: 21.2 µM (inactive)
MDA-N
  GI50: 18.7 µM (inactive)
PC-3
  GI50: 31.1 µM (inactive)
SF-295
  GI50: 16.1 µM (inactive)
NCI-H23
  GI50: 91.6 µM (inactive)
UO-31
  GI50: 22.4 µM (inactive)
UACC-62
  GI50: 25.9 µM (inactive)
COLO 205
  GI50: 18.3 µM (inactive)

## CCOc1ccc2nc(NC(NC(=O)c3cccnc3)(C(F)(F)F)C(F)(F)F)sc2c1
786-0
  GI50: 26.5 µM (inactive)
OVCAR-3
  GI50: 32.6 µM (inactive)
SNB-75
  GI50: 23.3 µM (inactive)
NCI/ADR-RES
  GI50: 25.8 µM (inactive)
HL-60
  GI50: 32.4 µM (inactive)
HCT-116
  GI50: 25.4 µM (inactive)
EKVX
  GI50: 22.6 µM (inactive)
SNB-19
  GI50: 51.9 µM (inactive)
NCI-H522
  GI50: 23.4 µM (inactive)
NCI-H226
  GI50: 44 µM (inactive)
CAKI-1
  GI50: 38.3 µM (inactive)
CCRF-CEM
  GI50: 17.1 µM (inactive)
BT-549
  GI50: 30.2 µM (inactive)
NCI-H460
  GI50: 28.6 µM (inactive)
OVCAR-4
  GI50: 24 µM (inactive)
OVCAR-5
  GI50: 25.6 µM (inactive)
SF-268
  GI50: 56.8 µM (inactive)
K562
  GI50: 38.4 µM (inactive)
MOLT-4
  GI50: 20.4 µM (inactive)
SN12C
  GI50: 25.2 µM (inactive)
MDA-MB-231
  GI50: 66.1 µM (inactive)
SF-539
  GI50: 49.2 µM (inactive)
Malme-3M
  GI50: 51.1 µM (inactive)
KM12
  GI50: 29.3 µM (inactive)
HT-29
  GI50: 14.1 µM (inactive)
TK-10
  GI50: 33.9 µM (inactive)
Hs-578T
  GI50: > 100 µM (inactive)
MCF7
  GI50: 25.5 µM (inactive)
M14
  GI50: 34.1 µM (inactive)
A549
  GI50: 31.4 µM (inactive)
RXF 393
  GI50: 21 µM (inactive)
U-251
  GI50: 42.5 µM (inactive)
T47D
  GI50: 21 µM (inactive)
SK-OV-3
  GI50: 93.8 µM (inactive)
SK-MEL-2
  GI50: 38.5 µM (inactive)
HCC 2998
  GI50: 22.4 µM (inactive)
UACC-257
  GI50: 25.5 µM (inactive)
ACHN
  GI50: 29.3 µM (inactive)
MDA-MB-435
  GI50: 22.2 µM (inactive)
SK-MEL-5
  GI50: 20.5 µM (inactive)
HCT-15
  GI50: 26 µM
HOP-92
  GI50: 20.5 µM (inactive)
SK-MEL-28
  GI50: 35.2 µM (inactive)
DU-145
  GI50: 35.7 µM (inactive)
OVCAR-8
  GI50: 26.7 µM (inactive)
SR
  GI50: 24.9 µM (inactive)
SW-620
  GI50: 46.1 µM (inactive)
MDA-N
  GI50: 15.6 µM (inactive)
PC-3
  GI50: 31.7 µM (inactive)
SF-295
  GI50: 42 µM (inactive)
NCI-H23
  GI50: 22.8 µM (inactive)
UO-31
  GI50: 6.84 µM (inactive)
UACC-62
  GI50: 25.6 µM (inactive)
COLO 205
  GI50: 34.1 µM (inactive)

## CC(=O)NC1C(OCc2ccccc2)OC(CO)C(O)C1OCC(=O)NC(C)C(=O)NC(CCC(=O)NCCCCCC(=O)Nc1ccc2c(c1)CN1C(=O)c3ccccc3C1=N2)C(N)=O (configuration not stated)
786-0
  GI50: 82.8 µM (inactive)
OVCAR-3
  GI50: > 100 µM (inactive)
SNB-75
  GI50: 49.8 µM (inactive)
NCI/ADR-RES
  GI50: > 100 µM (inactive)
HL-60
  GI50: > 100 µM (inactive)
HCT-116
  GI50: 39.6 µM (inactive)
EKVX
  GI50: > 100 µM (inactive)
RPMI-8226
  GI50: 38 µM (inactive)
SNB-19
  GI50: 63.1 µM (inactive)
A498
  GI50: > 100 µM (inactive)
CAKI-1
  GI50: > 100 µM (inactive)
CCRF-CEM
  GI50: 32.7 µM (inactive)
BT-549
  GI50: > 100 µM (inactive)
NCI-H460
  GI50: 43.1 µM (inactive)
OVCAR-4
  GI50: > 100 µM (inactive)
OVCAR-5
  GI50: > 100 µM (inactive)
SF-268
  GI50: 63.8 µM (inactive)
K562
  GI50: 45 µM (inactive)
MOLT-4
  GI50: 42.1 µM (inactive)
SN12C
  GI50: 69.8 µM (inactive)
MDA-MB-231
  GI50: > 100 µM (inactive)
SF-539
  GI50: > 100 µM (inactive)
Malme-3M
  GI50: 78.3 µM (inactive)
KM12
  GI50: 34.5 µM (inactive)
HT-29
  GI50: > 100 µM (inactive)
HOP-62
  GI50: 41 µM (inactive)
TK-10
  GI50: 30.3 µM (inactive)
Hs-578T
  GI50: > 100 µM (inactive)
MCF7
  GI50: 35.6 µM (inactive)
M14
  GI50: > 100 µM (inactive)
A549
  GI50: 72.8 µM (inactive)
RXF 393
  GI50: > 100 µM (inactive)
IGROV-1
  GI50: > 100 µM (inactive)
U-251
  GI50: 48.3 µM (inactive)
T47D
  GI50: > 100 µM (inactive)
SK-OV-3
  GI50: > 100 µM (inactive)
SK-MEL-2
  GI50: > 100 µM (inactive)
HCC 2998
  GI50: 61.4 µM (inactive)
UACC-257
  GI50: > 100 µM (inactive)
ACHN
  GI50: 62.8 µM (inactive)
MDA-MB-435
  GI50: > 100 µM (inactive)
SK-MEL-5
  GI50: 75 µM (inactive)
HCT-15
  GI50: > 100 µM
LOX IMVI
  GI50: 53.1 µM (inactive)
HOP-92
  GI50: 25.3 µM (inactive)
SK-MEL-28
  GI50: > 100 µM (inactive)
DU-145
  GI50: > 100 µM (inactive)
OVCAR-8
  GI50: 49.5 µM (inactive)
SR
  GI50: 17.4 µM (inactive)
SW-620
  GI50: 43.5 µM (inactive)
MDA-N
  GI50: > 100 µM (inactive)
PC-3
  GI50: 58.6 µM (inactive)
SF-295
  GI50: 75.7 µM (inactive)
NCI-H23
  GI50: 67.5 µM (inactive)
UO-31
  GI50: > 100 µM (inactive)
UACC-62
  GI50: 57.3 µM (inactive)
COLO 205
  GI50: > 100 µM (inactive)

Source: ChEMBL document CHEMBL1201862, “PubChem BioAssay data set” (2004)
